Experimental findings from ChEMBL document CHEMBL6083242, “Design and optimization of novel Tetrahydro-β-carboline-based HDAC inhibitors with potent activities against tumor cell growth and metastasis” (Bioorg Med Chem Lett, 2024) are described below.

Calls of active or inactive are those of the source. No cut-off for these calls is given here.

Test [1] deals with A549. The test is described as follows: Induction of cell cycle arrest in human A549 cells assessed as accumulation of cells in G2/M phase by measuring cyclin B1 level incubated for 24 hrs by Western blotting analysis. Conditions: dose 0.5-5 µM. Format: functional, cell-based. (In general: In western blotting, separated proteins are transferred to a membrane and probed.)
Test [2] deals with A549. The test is described as follows: Antiproliferative activity against human A549 cells assessed as inhibition of cell proliferation.
For test [3], the system named is A549. As to the kind of experiment: Induction of apoptosis in human A549 cells assessed as downregulation of Bcl-2 expression incubated for 24 hrs by Western blot analysis. It counts as functional, cell-based. Conditions: dose 0.5-5 µM.
The test system of test [4] is A549. As to the kind of experiment: Induction of apoptosis in human A549 cells assessed as upregulation of Bax expression incubated for 24 hrs by Western blot analysis. Format: functional, cell-based. Conditions: dose 0.5-5 µM.
Test [5] relates to A549. The test is described as follows: Induction of apoptosis in human A549 cells assessed as increase in ROS level incubated for 24 hrs by DCFH-DA staining based fluorescence analysis. It counts as functional, cell-based. Particulars: dose 0.5-5 µM.
The test system of another test is MCF7. The test is described as follows: Antiproliferative activity against human MCF7 cells assessed as inhibition of cell proliferation.
The test system of test [6] is A549. The test is described as follows: Induction of apoptosis in human A549 cells assessed as gammaH2AX foci formation incubated for 24 hrs by immunofluorescence analysis. Particulars: dose 0.5-5 µM. Format: functional, cell-based.
Test [7] has as its system A549. The test is described as follows: Induction of apoptosis in human A549 cells assessed as upregulation of cleaved caspase 3 expression incubated for 24 hrs by Western blot analysis. It counts as functional, cell-based. Conditions: dose 0.5-5 µM.
In test [8] the test system is A549. As to the kind of experiment: Antimetastatic activity in human A549 cells assessed as reduction in cell migration incubated for 24 hrs by wound healing assay. It counts as functional, cell-based. Conditions: dose 0.5-5 µM.
The test system of test [9] is A549. The test is described as follows: Induction of apoptosis in human A549 cells at 0.5 to 5 uM incubated for 72 hrs by Annexin V/PI staining based flow cytometry analysis (reference value: 17.35%). Format: functional. Conditions: dose 0.5-5 µM. A general note: In flow cytometry, cells or beads pass a laser one at a time.
A further test concerns MDA-MB-231. The test is described as follows: Antiproliferative activity against human MDA-MB-231 cells assessed as inhibition of cell proliferation.
Test [10] relates to A549. The test is described as follows: Induction of cell cycle arrest in human A549 cells assessed as accumulation of cells in G2/M phase by measuring CDK1 level incubated for 24 hrs by Western blotting analysis. Format: functional, cell-based. Particulars: dose 0.5-5 µM.
Test [11] deals with A549. As to the kind of experiment: Induction of cell cycle arrest in human A549 cells assessed as accumulation of cells at G2/M phase incubated for 24 hrs by flow cytometry analysis. Format: functional, cell-based. Conditions: dose 0.5-5 µM.
Test [12] has as its system A549. As to the kind of experiment: Induction of apoptosis in human A549 cells at 5 uM incubated for 72 hrs by Annexin V/PI staining based flow cytometry analysis relative to control. It counts as functional.
Test [13] relates to A549. As to the kind of experiment: Induction of apoptosis in human A549 cells incubated for 72 hrs by Annexin V/PI staining based flow cytometry analysis. Particulars: dose 0.5-5 µM. It counts as functional, cell-based.
For test [14], the system named is A549. As to the kind of experiment: Induction of apoptosis in human A549 cells assessed as upregulation of PARP expression incubated for 24 hrs by Western blot analysis. Particulars: dose 0.5-5 µM. Format: functional, cell-based.
For the next test, the system named is HeLa. The test is described as follows: Antiproliferative activity against human HeLa cells assessed as inhibition of cell proliferation.
In test [15] the test system is A549. As to the kind of experiment: Induction of apoptosis in human A549 cells assessed as induction of gammaH2AX expression at 0.5 uM incubated for 24 hrs by immunofluorescence analysis. Format: functional, cell-based.

As usually defined, the IC50 is the concentration at which inhibition is half-maximal. Take `CC(=O)N1CCc2c(n(CCCCCCC(=O)NO)c3ccccc23)C1`: the Activity entry in the test with A549 [1], in the test on A549 [3], in the test with A549 [4], with A549 [5], with A549 [6] and with A549 [7] was “Dose-dependent-effect” throughout. For the same compound, the Activity entry was “Dose-dependent-effect” with A549 [8]; 24.17% in the test on A549 [9]; “Dose-dependent-effect” in the test on A549 [10]; “Dose-dependent-effect” in the test with A549 [11]; 43.95% with A549 [12]; “Dose-dependent-effect” with A549 [13]. Also, the Activity entry in the test with A549 [14] is “Dose-dependent-effect”. Moreover, the IC50 in the test on A549 [2] came out at 1090 nM; with MCF7, 5670 nM; in the test with MDA-MB-231, 6.74 µM; with HeLa it was 6.09 µM. Moreover, the result in the test with A549 [15] was Active.

Turning to `O=C(CCCCCCC(=O)N1CCc2c(n(CC3CC3)c3ccccc23)C1)NO`, the IC50 in the test with A549 [2] stood at 2690 nM; in the test with MCF7, 1210 nM; with MDA-MB-231 it was 2.1 µM; in the test on HeLa, 184 µM.

Consider `CC(C)Cn1c2c(c3ccccc31)CCN(C(=O)CCCCCCC(=O)NO)C2`, for which the IC50 with A549 [2] is 4150 nM; with MCF7 it was 3040 nM; with MDA-MB-231, 1.69 µM; in the test on HeLa, 6.05 µM.

Consider `O=C(CCCCCCC(=O)N1CCc2c([nH]c3ccccc23)C1)NO`, for which the IC50 was 2290 nM with A549 [2], 1840 nM in the test on MCF7, 196 µM in the test on MDA-MB-231 and 0.43 µM in the test with HeLa.

With `O=C(CCCCCCC(=O)Nc1ccccc1)NO` [VORINOSTAT], the Activity in the test on A549 [12] was determined as 34.83%.
